Patent US9079866B2, “Flap modulators” (JANSSEN PHARMACEUTICA NV, priority 2013, dated 2015)
pIC50, pKi: −log10 of the molar value. Counter-ions that a name gives are not always drawn. Like-named read-outs stand apart in the source and are kept apart here.

Tests used:
[1] = test system: leukotriene pathway in human whole blood (LTB4 levels); assay: Human whole blood assay (A23187-stimulated LTB4); assay type: cell-based; details: Homo sapiens, read-out: LTB4 IC50 1:1
Method in brief: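 Blood (heparin) diluted 1:1 RPMI; compound pre-incubation 15 min, 37° Celsius; A23187 7 μg/mL, 30 min, 37° Celsius; plasma LTB4 by commercial kit. IC50 via 4-parameter equation.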

human FLAP = human FLAP (Homo sapiens (Human), UniProt P20292); assay: FLAP binding assay (HTRF format)
Method in brief: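 Reported data take the mean of two different plates carrying duplicate samples and use the HTRF ratio as the measured signal.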

[2] = human whole blood diluted 1:1, A23187-stimulated
[3] = human whole blood diluted 1:1 in RPMI, A23187-stimulated LTB4
[4] = human FLAP wild type, HTRF format, average of two plates, duplicates
[5] = read-out: FLAP Binding wild type HTRF Ki

Chain of human FLAP (P20292 whole entry): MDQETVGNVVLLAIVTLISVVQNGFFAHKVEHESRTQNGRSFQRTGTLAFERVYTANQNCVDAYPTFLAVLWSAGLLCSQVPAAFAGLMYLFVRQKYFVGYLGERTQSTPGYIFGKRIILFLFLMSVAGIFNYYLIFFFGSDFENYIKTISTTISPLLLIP

| Structure (SMILES) | pIC50 [1, 2] | pKi (human FLAP; wild type FLAP, HTRF format) | pIC50 [1, 3] | pKi (human FLAP; [4]) | pKi (human FLAP; [5]) |
| --- | --- | --- | --- | --- | --- |
| O=C(c1ccccc1-c1ccc(-c2cnc3[nH]ccc3c2)c(F)c1)N1CCOCC1 [Example 498, 5-[3-Fluoro-2′-(morpholin-4-ylcarbonyl)biphenyl-4-yl]-1H-pyrrolo[2,3-b]pyridine] | 6.95 | 7.80 |  |  |  |
| Nc1cnc(-c2ccc(-c3ccccc3OCC(F)(F)F)cc2F)cn1 [Example 484, 5-[3-Fluoro-2′-(2,2,2-trifluoroethoxy)biphenyl-4-yl]pyrazin-2-amine] | 5.46 | 7.11 |  |  |  |
| Nc1cnc(-c2ccc(-c3ccccc3S(=O)(=O)C3CCC3)cc2F)cn1 [Example 196, 5-[2′-(Cyclobutylsulfonyl)-3-fluorobiphenyl-4-yl]pyrazin-2-amine] |  |  | 6.98 | 8.00 |  |
| Nc1cnc(-c2ccc(-c3ccccc3S(=O)(=O)N[C@@H]3CCCC[C@@H]3O)cc2F)cn1 [Example 87, 4′-(5-Aminopyrazin-2-yl)-3′-fluoro-N-[(1R,2S)-2-hydroxycyclohexyl]biphenyl-2-sulfonamide] |  |  | 7.12 | 8.52 |  |
| Nc1ncc(-c2ccc(-c3ccccc3S(=O)(=O)N3CCOC(CO)C3)cc2F)cn1 (racemic) [Example 252, racemic (4-{[4′-(2-Aminopyrimidin-5-yl)-3′-fluorobiphenyl-2-yl]sulfonyl}morpholin-2-yl)methanol] |  |  | 6.69 | 6.90 |  |
| CC(C)(C)NS(=O)(=O)c1ccccc1-c1ccc(-c2cnc(N)nc2C(F)(F)F)c(F)c1 [Example 453, 4′-[2-Amino-4-(trifluoromethyl)pyrimidin-5-yl]-N-tert-butyl-3′-fluorobiphenyl-2-sulfonamide trifluoroacetic acid salt] | < 5.00 | < 5.00 |  |  |  |
| Nc1ncc(-c2ccc(-c3ccccc3S(=O)(=O)N3CCN(CCO)CC3)cc2F)cn1 [Example 282, 2-(4-{[4′-(2-Aminopyrimidin-5-yl)-3′-fluorobiphenyl-2-yl]sulfonyl}piperazin-1-yl)ethanol trifluoroacetic acid salt] |  |  | 6.55 |  | 6.12 |
| Nc1ccnc(Oc2ccccc2-c2ccc(-c3cnc(N)nc3)c(F)c2)n1 [Example 529, 5-{2′-[(4-Aminopyrimidin-2-yl)oxy]-3-fluorobiphenyl-4-yl}pyrimidin-2-amine] | 7.05 | 7.44 |  |  |  |
| CC(CO)(CO)NS(=O)(=O)c1ccccc1-c1ccc(-c2cnc(N)cn2)c(F)c1 [Example 147, 4′-(5-Aminopyrazin-2-yl)-3′-fluoro-N-[2-hydroxy-1-(hydroxymethyl)-1-methylethyl]biphenyl-2-sulfonamide] |  |  | 6.99 | 9.00 |  |
| Nc1ncc(-c2ccc(-c3ccccc3S(=O)(=O)N[C@@H]3CCCNC3=O)cc2F)cn1 [Example 266, 4′-(2-Aminopyrimidin-5-yl)-3′-fluoro-N-[(3R)-2-oxopiperidin-3-yl]biphenyl-2-sulfonamide trifluoroacetic acid salt] |  |  | 6.33 |  | 6.74 |
| C[C@H](CO)NC(=O)c1ccccc1-c1ccc(-c2cnc(N)cn2)c(F)c1 [Example 512, 4′-(5-Aminopyrazin-2-yl)-3′-fluoro-N-[(1R)-2-hydroxy-1-methylethyl]biphenyl-2-carboxamide] | 6.33 | 6.35 |  |  |  |
| Nc1ncc(-c2ccc(-c3cccnc3OC3CCOCC3)cc2F)cn1 [Example 654, 5-{2-Fluoro-4-[2-(tetrahydro-2H-pyran-4-yloxy)pyridin-3-yl]phenyl}pyrimidin-2-amine] | 5.98 | 6.89 |  |  |  |
| Nc1cnc(-c2ccc(-c3ccccc3S(=O)(=O)N3CC[C@@H](O)C3)cc2F)cn1 [Example 185, (3R)-1-{[4′-(5-Aminopyrazin-2-yl)-3′-fluorobiphenyl-2-yl]sulfonyl}pyrrolidin-3-ol trifluoroacetic acid salt] |  |  | 7.29 | 8.00 |  |
| Nc1cnc(-c2ccc(-c3ccccc3C(=O)N3CCC(O)CC3)cc2F)cn1 [Example 514, 1-{[4′-(5-Aminopyrazin-2-yl)-3′-fluorobiphenyl-2-yl]carbonyl}piperidin-4-ol] | 6.83 | 6.88 |  |  |  |
| C[C@H](NS(=O)(=O)c1ccccc1-c1ccc(-c2cnc(N)nc2)nc1)C(F)(F)F [Example 685, 2-[6-(2-Aminopyrimidin-5-yl)pyridin-3-yl]-N-[(1S)-2,2,2-trifluoro-1-methylethyl]benzenesulfonamide trifluoroacetic acid salt] | 6.94 | 7.28 |  |  |  |
| Nc1ncc(-c2ccc(-c3ccccc3S(=O)(=O)N[C@@H](c3ccccc3)C(F)(F)F)cc2F)cn1 [Example 292, 4′-(2-Aminopyrimidin-5-yl)-3′-fluoro-N-[(1S)-2,2,2-trifluoro-1-phenylethyl]biphenyl-2-sulfonamide trifluoroacetic acid salt] |  |  | 5.99 |  | 7.92 |
| Nc1cnc(-c2ccc(-c3ccccc3S(=O)(=O)N3CCS(=O)(=O)CC3)cc2F)cn1 [Example 45, 5-{2′-[(1,1-Dioxidothiomorpholin-4-yl)sulfonyl]-3-fluorobiphenyl-4-yl}pyrazin-2-amine] |  |  | 8.00 | 8.52 |  |

| Structure (SMILES) | pIC50 [1, 2] | pKi (human FLAP; wild type FLAP, HTRF format) | pIC50 [1, 3] | pKi (human FLAP; [4]) | pKi (human FLAP; [5]) |
| --- | --- | --- | --- | --- | --- |
| Nc1cnc(-c2ccc(-c3ccccc3Sc3cc(N)ncn3)cc2F)cn1 [Example 215, 6-{[4′-(5-Aminopyrazin-2-yl)-3′-fluorobiphenyl-2-yl]sulfanyl}pyrimidin-4-amine hydrochloride] |  |  | 7.92 | 8.70 |  |
| Nc1cnc(-c2ccc(-c3ccccc3CSc3cc(N)ncn3)cc2F)cn1 [Example 238, 6-(((4′-(5-Aminopyrazin-2-yl)-3′-fluoro-[1,1′-biphenyl]-2-yl)methyl)thio)pyrimidin-4-amine hydrochloride] |  |  | 7.42 | 8.30 |  |
| Nc1cnc(-c2ccc(-c3ccccc3S(=O)(=O)N[C@H]3CCNC3)cc2F)cn1 [Example 154, (S)-4′-(5-Aminopyrazin-2-yl)-3′-fluoro-N-(pyrrolidin-3-yl)-[1,1′-biphenyl]-2-sulfonamide] |  |  | 5.98 | 7.54 |  |
| CC(C)CNS(=O)(=O)c1ccccc1-c1ccc(-c2cnc(N)cn2)c(F)c1 [Example 7, 4′-(5-Aminopyrazin-2-yl)-3′-fluoro-N-(2-methylpropyl)biphenyl-2-sulfonamide] |  |  | 7.85 | 8.70 |  |
| Nc1ncc(-c2ccc(-c3ccccc3Sc3ccnc(N)n3)cc2F)cn1 [Example 335, 4-{[4′-(2-Aminopyrimidin-5-yl)-3′-fluorobiphenyl-2-yl]sulfanyl}pyrimidin-2-amine formate salt] |  |  | 7.43 | 8.70 |  |
| CC(C)(C)[C@@H](CO)NS(=O)(=O)c1ccccc1-c1ccc(-c2cnc(N)nc2)c(F)c1 [Example 270, 4′-(2-Aminopyrimidin-5-yl)-3′-fluoro-N-[(1S)-1-(hydroxymethyl)-2,2-dimethylpropyl]biphenyl-2-sulfonamide trifluoroacetic acid salt] |  |  | 5.97 |  | 7.24 |
| NS(=O)(=O)c1ccccc1-c1ccc(-c2cnc3c(c2)OCCN3)c(F)c1 [Example 387, 4′-(3,4-Dihydro-2H-pyrido[3,2-b][1,4]oxazin-7-yl)-3′-fluorobiphenyl-2-sulfonamide] |  |  | 6.60 | 8.10 |  |
| Nc1cnc(-c2ccc(-c3ccccc3S(=O)(=O)NCCO)cc2F)cn1 [Example 88, 4′-(5-Aminopyrazin-2-yl)-3′-fluoro-N-(2-hydroxyethyl)biphenyl-2-sulfonamide] |  |  | 7.44 | 8.15 |  |
| COc1c(-c2ccc(C(F)(F)F)cc2)ccc(-c2cnc(N)cn2)c1F [Example 698, 5-(3-fluoro-2-methoxy-4′-(trifluoromethyl)-[1,1′-biphenyl]-4-yl)pyrazin-2-amine] | 6.95 | 8.06 |  |  |  |
| Nc1cnc(-c2ccc(-c3ccccc3S(=O)(=O)N[C@H]3CC[C@H](O)CC3)cc2F)cn1 [Example 110, 4′-(5-Aminopyrazin-2-yl)-3′-fluoro-N-(4-hydroxycyclohexyl)biphenyl-2-sulfonamide] |  |  | 7.54 | 8.52 |  |
| CC(C)[C@@H](CO)NS(=O)(=O)c1ccccc1-c1ccc(-c2cnc(N)nc2)c(F)c1 [Example 271, 4′-(2-Aminopyrimidin-5-yl)-3′-fluoro-N-[(1S)-1-(hydroxymethyl)-2-methylpropyl]biphenyl-2-sulfonamide trifluoroacetic acid salt] |  |  | 6.22 | 7.29 |  |
| Nc1cnc(-c2ccc(-c3cccnc3S(=O)(=O)C3CCCC3)cc2F)cn1 [Example 810, 5-(4-(2-(Cyclopentylsulfonyl)pyridin-3-yl)-2-fluorophenyl)pyrazin-2-amine hydrochloride] | 8.25 | 9.22 |  |  |  |
| CC(C)S(=O)(=O)c1ncccc1-c1ccc(-c2cnc(N)nc2)c(F)c1 [Example 825, 5-(2-Fluoro-4-{2-[(1-methylethyl)sulfonyl]pyridin-3-yl}phenyl)pyrimidin-2-amine] | 6.91 | 6.56 |  |  |  |
| CSc1ccccc1-c1ccc(-c2cnc(N)cn2)c(F)c1 [Example 474, 5-[3-Fluoro-2′-(methylsulfanyl)biphenyl-4-yl]pyrazin-2-amine] | 5.58 | 7.68 |  |  |  |
| Nc1ncc(-c2ccc(-c3ccc(C(F)(F)F)cc3Oc3ccnc(N)n3)cn2)cn1 [Example 565, 4-{2-[6-(2-Aminopyrimidin-5-yl)pyridin-3-yl]-5-(trifluoromethyl)phenoxy}pyrimidin-2-amine] | 6.01 | 7.09 |  |  |  |
| CC(C)(C)NS(=O)(=O)c1ccccc1-c1ccc(-c2cnc(N)nc2)c(F)c1 [Example 305, 4′-(2-Aminopyrimidin-5-yl)-N-(tert-butyl)-3′-fluoro-[1,1′-biphenyl]-2-sulfonamide trifluoroacetic acid salt] |  |  | 7.11 | 8.70 |  |
